Experiments:
[1] = test system: S. aureus; conditions: individual subunit vaccine antigens; none afforded complete protection; cited from earlier work
[2] = target: T1, 5′-nucleotidases from rat liver membrane (Rattus norvegicus, UniProt P21588); conditions: Uchino et al., 1986; cited from earlier work
T1 sequence (P21588 29-551): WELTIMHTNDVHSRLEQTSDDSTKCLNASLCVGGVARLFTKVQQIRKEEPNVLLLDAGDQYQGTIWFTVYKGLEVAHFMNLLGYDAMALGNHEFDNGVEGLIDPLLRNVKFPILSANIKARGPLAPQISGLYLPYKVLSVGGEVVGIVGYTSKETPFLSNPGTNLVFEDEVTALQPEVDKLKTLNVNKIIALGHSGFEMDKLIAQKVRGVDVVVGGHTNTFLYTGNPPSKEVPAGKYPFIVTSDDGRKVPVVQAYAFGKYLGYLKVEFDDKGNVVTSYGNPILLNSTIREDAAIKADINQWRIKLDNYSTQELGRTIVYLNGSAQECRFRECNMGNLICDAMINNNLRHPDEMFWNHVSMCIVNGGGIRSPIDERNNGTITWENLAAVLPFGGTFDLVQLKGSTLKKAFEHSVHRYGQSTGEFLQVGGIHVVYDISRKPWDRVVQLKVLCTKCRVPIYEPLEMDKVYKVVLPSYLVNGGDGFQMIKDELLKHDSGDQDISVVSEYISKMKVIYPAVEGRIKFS

[3] = test system: 5′-nucleotidases from snake venom; conditions: Uchino et al., 1986; cited from earlier work
[4] = test system: AdsA; assay type: biochemical, S. aureus
[5] = test system: adsA mutant staphylococci; test: Survival of adsA staphylococci in rat blood with added adenosine (FIG. 17F); assay type: cell-based, S. aureus; conditions: addition of 1-100 μM adenosine
[6] = test system: Nc1ncnc2c1ncn2[C@@H]1O[C@H](COP(=O)(O)O)[C@@H](O)[C@H]1O; test: purified protein, by the assay type; conditions: pH 7.5; 37.0 °C
[7] = target: T2, 5′-ecto nucleotidase (human homologue of bacterial AdsA) (Homo sapiens, UniProt P21589); conditions: cited from earlier work
T2 sequence (P21589 27-549): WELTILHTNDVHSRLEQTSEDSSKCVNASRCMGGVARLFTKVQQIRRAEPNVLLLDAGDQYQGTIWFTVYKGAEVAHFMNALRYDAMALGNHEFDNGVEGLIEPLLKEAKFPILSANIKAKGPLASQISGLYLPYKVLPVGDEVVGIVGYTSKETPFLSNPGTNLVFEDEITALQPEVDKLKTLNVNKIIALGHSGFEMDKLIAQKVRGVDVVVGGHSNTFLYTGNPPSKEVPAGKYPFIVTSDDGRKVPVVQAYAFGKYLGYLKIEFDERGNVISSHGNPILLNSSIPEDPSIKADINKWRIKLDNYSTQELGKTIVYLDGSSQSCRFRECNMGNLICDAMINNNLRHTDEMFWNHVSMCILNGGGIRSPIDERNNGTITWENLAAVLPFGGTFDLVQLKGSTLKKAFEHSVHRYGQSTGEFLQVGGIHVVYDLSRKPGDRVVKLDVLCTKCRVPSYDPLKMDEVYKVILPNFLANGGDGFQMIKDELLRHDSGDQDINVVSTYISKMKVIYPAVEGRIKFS

[8] = test system: secreted 5′-nucleotidases from trophozoites of Trichomonas gallinae; conditions: Borges et al., 2007; cited from earlier work
[9] = test system: S. aureus Newman; test: Eap, Emp vaccination, murine renal abscess model (FIG. 5); conditions: for histological lesions: kidneys of immunized mice, PBS mock 4/5, FIG. 5E

SdrD: purified S. aureus sortase A substrate surface protein used as subunit vaccine antigen
reduction in bacterial load [1]: significant reduction in bacterial load

IsdB: purified S. aureus sortase A substrate surface protein used as subunit vaccine antigen
reduction in bacterial load [1]: significant reduction in bacterial load

melanocidins A and B
inhibitory activity against 5′-nucleotidases [2]: potent inhibitory activity | inhibitory activity against 5′-nucleotidases [3]: potent inhibitory activity

O=S(=O)([O-])[O-].[Cu+2] [CuSO4]
inhibition of adenosine synthase activity [4]: completely inhibited

Nc1ncnc2c1ncn2[C@@H]1O[C@H](CO)[C@@H](O)[C@H]1O [adenosine]
survival of adsA mutant staphylococci in blood [5]: dose-dependent increase in the survival

nucleoticidin
inhibitory activity against 5′-nucleotidases [2]: potent inhibitory activity | inhibitory activity against 5′-nucleotidases [3]: potent inhibitory activity

Staphylococcus aureus adenosine synthase A (AdsA, SasH), purified soluble recombinant form AdsA1-400 (from GST-AdsA expressed in Escherichia coli), SEQ ID NO:36 (Staphylococcus aureus subsp. aureus NCTC 8325)
Km [6]: 0.044 µM

SdrE: purified S. aureus sortase A substrate surface protein used as subunit vaccine antigen
reduction in bacterial load [1]: significant reduction in bacterial load

Nc1ncnc2c1ncn2[C@@H]1O[C@H](COP(=O)(O)CP(=O)(O)O)[C@@H](O)[C@H]1O [AOPCP, α,β-methylene adenosine 5′-diphosphate]
inhibition of 5′-ecto nucleotidase [7]: inhibitor | inhibition of secreted 5′-nucleotidases [8]: does not inhibit

[Cl-].[Cl-].[Zn+2] [ZnCl2]
inhibition of adenosine synthase activity [4]: completely inhibited

B1: Eap: recombinant His-tagged staphylococcal envelope associated protein Eap (SEQ ID NO:4) purified from E. coli, vaccine antigen (protein, listed as Staphylococcus aureus)
chain: MKFKSLITTTLALGVLASTGANFNNNEASAAAKPLDKSSSSLHHGYSKVHVPYAITVNGTSQNILSSLTFNKNQNISYKDLEDRVKSVLKSDRGISDIDLRLSKQAKYTVYFKNGTKKVIDLKAGIYTADLINTSEIKAININVDTKKQVEDKKKDKANYQVPYTITVNGTSQNILSNLTFNKNQNISYKDLEDKVKSVLESNRGITDVDLRLSKQAKYTVNFKNGTKKVIDLKSGIYTANLINSSDIKSININVDTKKHIENKAKRNYQVPYSINLNGTSTNILSNLSFSNKPWTNYKNLTSQIKSVLKHDRGISEQDLKYAKKAYYTVYFKNGGKRILQLNSKNYTANLVHAKDVKRIEITVKTGTKAKADRYVPYTIAVNGTSTPILSDLKFTGDPRVGYKDISKKVKSVLKHDRGIGERELKYAKKATYTVHFKNGTKKVININSNISQLNLLYVQDIKKIDIDVKTGTKAKADSYVPYTIAVNGTSTPILSKLKISNKQLISYKYLNDKVKSVLKSERGISDLDLKFAKQAKYTVYFKNGKKQVVNLKSDIFTPNLFSAKDIKKIDIDVKQYTKSKKNK
modifications: His-tag
histological lesions [9]: 1/5

B2: Emp: recombinant His-tagged staphylococcal envelope associated protein Emp (SEQ ID NO:2) purified from E. coli, vaccine antigen (protein, listed as Staphylococcus aureus)
chain: MKKKLLVLTMSTLFATQIMNSNHAKASVTESVDKKFVVPESGINKIIPAYDEFKNSPKVNVSNLTDNKNFVASEDKLNKIADSSAASKIVDKNFVVPESKLGNIVPEYKEINNRVNVATNNPASQQVDKHFVAKGPEVNRFITQNKVNHHFITTQTHYKKVITSYKSTHVHKHVNHAKDSINKHFIVKPSESPRYTHPSQSLIIKHHFAVPGYHAHKFVTPGHASIKINHFCVVPQINSFKVIPPYGHNSHRMHVPSFQNNTTATHQNAKVNKAYDYKYFYSYKVVKGVKKYFSFSQSNGYKIGKPSLNIKNVNYQYAVPSYSPTHYVPEFKGSLPAPRV
modifications: His-tag
titers of reactive IgG ([9]; ELISA IgG titers from vaccinated mice, FIG. 5D): > 64,000 | histological lesions [9]: 1/5

B3: IsdA: purified S. aureus sortase A substrate surface protein used as subunit vaccine antigen (protein, listed as Staphylococcus sp.)
chain: MTKHYLNSKYQSEQRSSAMKKITMGTASIILGSLVYIGADSQQVNAATEATNATNNQSTQVSQATSQPINFQVQKDGSSEKSHMDDYMQHPGKVIKQNNKYYFQTVLNNASFWKEYKFYNANNQELATTVVNDNKKADTRTINVAVEPGYKSLTTKVHIVVPQINYNHRYTTHLEFEKAIPTLADAAKPNNVKPVQPKPAQPKTPTEQTKPVQPKVEKVKPTVTTTSKVEDNHSTKVVSTDTTKDQTKTQTAHTVKTAQTAQEQNKVQTPVKDVATAKSESNNQAVSDNKSQQTNKVTKHNETPKQASKAKELPKTGLTSVDNFISTVAFATLALLGSLSLLLFKRKESK
reduction in bacterial load [1]: significant reduction in bacterial load

From patent US20110262477A1 (priority 2008, published 2011)
